# Data published in patent US20160052898A1, “NOVEL COMPOUNDS” (BAYER PHARMA AKTIENGESELLSCHAFT, priority 2013, published 2016).
# Where a name gives a salt, the structure may show the parent alone.
# Assays:
# [1] = system: constitutive active colorectal cancer cell (CRC) Wnt pathway; assay: HCT116 Super TopFlash cellular reporter assay (constitutive active Wnt pathway); format: cell-based; settings: Homo sapiens, HCT-116, 36 h, HCT116 TOP reporter cells, luciferase expression, 36 hours incubation, 50 μM to 15 nM
# How it was run: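 HCT116 cells (β-catenin ΔS45) stably carrying Super TopFlash, with a parallel FOP-control line, were plated 24 h ahead. They were exposed 36 h at 37 °C, 5% CO2 to compound from a 50 μM–15 nM, 3.16-fold pre-dilution series in CAFTY buffer (pH 7.4, 2 mM Ca2+, 0.01% BSA). Wnt signalling was read as luciferase luminescence.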
# [2] = system: HCT116 FOP control reporter cell line; assay: HCT116 FOP control vector reporter assay (non-functional TCF elements); format: cell-based; settings: Homo sapiens, HCT-116, 36 h, HCT116 FOP control reporter cells, luciferase expression, 36 hours incubation, 50 μM to 15 nM; read-out: HCT116 FOPFlash IC50
# How it was run: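 Stable HCT116 line carrying the non-functional FOP luciferase construct, 10000 cells/well plated 24 hrs before. Compounds 50 μM to 15 nM (3.16-fold steps) in CAFTY buffer pH 7.4 with 2 mM Ca2+, 36 hours at 37° C; luciferase luminescence read.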
SMILES,IC50 [1] [nM],IC50 [2] [nM]
"O=C(CN1CC2CCC(C1)O2)Nc1cc(C(=O)Nc2ccc(-c3ccccc3)cc2)ccc1OC1CC1 [Example 128, N-(biphenyl-4-yl)-4-(cyclopropyloxy)-3-[(8-oxa-3-azabicyclo[3.2.1]oct-3-ylacetyl)amino]benzamide]",74,≥ 50000
"O=C(Nc1ccc(-c2ccccc2)cc1)c1ccc(Br)c(NC(=O)C2(N3CCOCC3)CC2)c1 [Example 152, N-(biphenyl-4-yl)-4-bromo-3-({[1-(morpholin-4-yl)cyclopropyl]carbonyl}amino)benzamide]",33.8,29000
"COCc1ccc(C(=O)Nc2ccc(-c3ccccc3)cc2)cc1NC(=O)C(C)N1CCOCC1 (single isomer, unassigned) [Example 169, N-(biphenyl-4-yl)-4-(methoxymethyl)-3-{[(2R*)-2-(morpholin-4-yl)propanoyl]amino} benzamide]",154,10000
"CN(C)CCCNC(=O)c1ccc(C(=O)Nc2ccc(-c3ccccc3)cc2)cc1NC(=O)CN1CCOCC1 [Example 104, N^4-(biphenyl-4-yl)-N^1-[3-(dimethylamino)propyl]-2-[(morpholin-4-ylacetyl)amino]terephthalamide]",534,7400
"COc1ccc(C(=O)Nc2ccc(-c3ccccc3)cc2)cc1NC(=O)C1(N2CCN(C3CC3)CC2)CC1 [Example 156, N-(biphenyl-4-yl)-3-({[1-(4-cyclopropylpiperazin-1-yl)cyclopropyl)carbonyl}amino)-4-methoxybenzamide]",52.7,≥ 50000
"COc1ccc(NC(=O)c2ccc(-c3ccccc3)cc2)cc1NC(=O)CN1CCO[C@H](CO)C1 [Example 214, N-[3-({[(2S)-2-(hydroxymethyl)morpholin-4-yl]acetyl}amino)-4-methoxyphenyl]biphenyl-4-carboxamide]",4900,≥ 50000
"COCCN(C)CC(=O)Nc1cc(NC(=O)c2ccc(-c3ccccc3)cc2)ccc1OC [Example 49, N-(4-methoxy-3-{[N-(2-methoxyethyl)-N-methylglycyl]amino}phenyl)biphenyl-4-carboxamide]",2650,≥ 50000
"COc1ccc(NC(=O)c2ccc(-c3ccccc3)cc2)cc1NC(=O)CN1CCCC(OC)C1 (stereo not shown) [Example 38, N-(4-methoxy-3-{[(3-methoxypiperidin-1-yl)acetyl]amino}phenyl)biphenyl-4-carboxamide]",2000,≥ 50000
"COc1ccc(NC(=O)c2ccc(-c3ccc(N(C)C)cc3)cc2)cc1NC(=O)CN1CCOCC1 [Example 198, 4′-(dimethylamino)-N-{4-methoxy-3-[(morpholin-4-ylacetyl)amino]phenyl} biphenyl-4-carboxamide]",1500,≥ 50000
"O=C(Nc1ccc([N+](=O)[O-])cc1Cl)c1cc(Cl)ccc1O [Ref., niclosamide, reference compound]",1380,3100
"O=C(CNCCO)Nc1cc(NC(=O)c2ccc(-c3ccccc3)cc2)ccc1OC(F)(F)F [Example 140, N-[3-{[N-(2-hydroxyethyl)glycyl]amino}-4-(trifluoromethoxy)phenyl] biphenyl-4-carboxamide]",1700,25000
"COc1ccc(NC(=O)c2ccc(-c3ccccc3)cc2)cc1NC(=O)Cc1ccc(F)cc1 [Example 138, N-(3-{[(4-fluorophenyl)acetyl]amino}-4-methoxyphenyl)biphenyl-4-carboxamide]",1200,≥ 50000
"C[C@H](C(=O)Nc1cc(NC(=O)c2ccc(-c3ccccc3)cc2)ccc1OC(F)(F)F)N1CCOCC1 [Example 63, N-[3-{[(2R)-2-(morpholin-4-yl)propanoyl]amino}-4-(trifluoromethoxy)phenyl]biphenyl-4-carboxamide]",265,≥ 50000
"COc1ccc(NC(=O)c2ccc(-c3cccc(N)c3)cc2)cc1NC(=O)CN1CCOCC1 [Example 209, 3′-amino-N-{4-methoxy-3-[(morpholin-4-ylacetyl)amino]phenyl} biphenyl-4-carboxamide]",3550,≥ 50000
"NC(=O)COc1ccc(NC(=O)c2ccc(-c3ccccc3)cc2)cc1NC(=O)CN1CCOCC1 [Example 211, N-{4-(2-amino-2-oxoethoxy)-3-[(morpholin-4-ylacetyl)amino]phenyl} biphenyl-4-carboxamide]",3900,≥ 50000
"COc1ccc(NC(=O)c2ccc(-c3cc(F)cc(F)c3)cc2F)cc1NC(=O)CN1CCOCC1 [Example 196, 3,3′,5′-trifluoro-N-{4-methoxy-3-[(morpholin-4-ylacetyl)amino]phenyl} biphenyl-4-carboxamide]",1170,13000

SMILES,IC50 [1] [nM],IC50 [2] [nM]
"O=C(CN1CCOCC1)Nc1cc(C(=O)Nc2ccc(-c3ccccc3)cc2)ccc1C(=O)NCCN1CCCC1 [Example 191, N4-(biphenyl-4-yl)-2-[(morpholin-4-ylacetyl)amino]-N1-[2-(pyrrolidin-1-yl)ethyl]terephthalamide]",715,12000
COCc1ccc(C(=O)Nc2ccc(-c3ccccc3)cc2)cc1NC(=O)C1(N(C)C)CC1 [Example 158],63,≥ 50000
"CC(C(=O)Nc1cc(NC(=O)c2ccc(-c3ccccc3)cc2)ccc1C(F)(F)F)N1CC2CCC(C1)O2 (stereo not shown) [Example 178, N-[3-{[2-(8-oxa-3-azabicyclo[3.2.1]oct-3-yl)propanoyl]amino}-4-(trifluoromethyl)phenyl) biphenyl-4-carboxamide]",285,47500
"COc1ccc(C(=O)Nc2ccc(-c3ccccc3)cc2)cc1NC(=O)[C@@H](C)N1CCOCC1 [Example 153, N-(biphenyl-4-yl)-4-methoxy-3-{[(2R)-2-(morpholin-4-yl)propanoyl]amino} benzamide]",44,≥ 50000
"Cc1ccc(C(=O)Nc2ccc(-c3ccccc3)cc2)cc1NC(=O)C1(N2CCOCC2)CC1 [Example 159, N-(biphenyl-4-yl)-4-methyl-3-({[1-(morpholin-4-yl)cyclopropyl)carbonyl}amino)benzamide]",70.5,≥ 50000
"COCCNCC(=O)Nc1cc(NC(=O)c2ccc(-c3ccccc3)cc2)ccc1OC(F)(F)F [Example 130, N-[3-{[N-(2-methoxyethyl)glycyl]amino} -4-(trifluoromethoxy)phenyl] biphenyl-4-carboxamide]",248,28000
"O=C(Nc1ccc(F)c(NC(=O)C2(N3CCOCC3)CC2)c1)c1ccc(-c2ccccc2)cc1 [Example 171, N-[4-fluoro-3-({[1-(morpholin-4-yl)cyclopropyl]carbonyl}amino)phenyl]biphenyl-4-carboxamide]",200,≥ 50000
"COc1cc(Cl)c(C(=O)Nc2ccc(-c3ccccc3)cc2)cc1NC(=O)C(C)N1CCOCC1 (stereo not shown) [Example 5, N-(biphenyl-4-yl)-2-chloro-4-methoxy-5-{[2-(morpholin-4-yl)propanoyl]amino}benzamide]",507,≥ 50000
"COc1ccc(NC(=O)c2ccc(-c3ccc4c(c3)CCO4)cc2)cc1NC(=O)CN1CCOCC1 [Example 208, 4-(2,3-dihydro-1-benzofuran-5-yl)-N-{4-methoxy-3-[(morpholin-4-ylacetyl)amino]phenyl} benzamide]",3000,≥ 50000
"NCCCOc1ccc(C(=O)Nc2ccc(-c3ccccc3)cc2)cc1NC(=O)C1(N2CCOCC2)CC1 [Example 89, 4-(3-aminopropoxy)-N-(biphenyl-4-yl)-3-({[1-(morpholin-4-yl)cyclopropyl]carbonyl}amino)benzamide hydrochloride (1:1)]",676,20200
"COc1c(F)cc(C(=O)Nc2ccc(-c3ccccc3)cc2)cc1NC(=O)CN1CCOCC1 [Example 134, N-(biphenyl-4-yl)-3-fluoro-4-methoxy-5-[(morpholin-4-ylacetyl)amino]benzamide]",398,≥ 50000
"O=C(CN1CCOCC1)Nc1cc(C(=O)Nc2ccc(-c3ccccc3)cc2)ccc1OCc1ccccc1 [Example 24, 4-(benzyloxy)-N-(biphenyl-4-yl)-3-[(morpholin-4-ylacetyl)amino]benzamide]",360,≥ 50000
"CNc1ccc(-c2ccc(C(=O)Nc3ccc(OC)c(NC(=O)CN4CCOCC4)c3)cc2)cc1 [Example 119, N-{4-methoxy-3-[(morpholin-4-ylacetyl)amino]phenyl}-4′-(methylamino)biphenyl-4-carboxamide]",260,≥ 50000
"COc1ccc(NC(=O)c2ccc(-c3ccccc3)cc2)cc1NC(=O)CN1CCN(S(C)(=O)=O)CC1 [Example 51, N-[4-methoxy-3-({[4-(methylsulfonyl)piperazin-1-yl]acetyl}amino)phenyl]biphenyl-4-carboxamide]",3180,≥ 50000
"COc1c(Cl)cc(C(=O)Nc2ccc(-c3ccccc3)cc2)cc1NC(=O)CN1CCOCC1 [Example 136, N-(biphenyl-4-yl)-3-chloro-4-methoxy-5-[(morpholin-4-ylacetyl]amino]benzamide]",750,38500
"COc1ccc(NC(=O)c2ccc(-c3ccccc3)cc2)cc1NC(=O)CN1CCOCC1 [Example 52, N-{4-methoxy-3-[(morpholin-4-ylacetyl)amino]phenyl}biphenyl-4-carboxamide]",470,≥ 50000
